Source: patent US20090111778A1, “2-Keto-Oxazoles as Modulators of Fatty Acid Amide Hydrolase” (priority 2005, published 2009)

Key:
rat FAAH = biological target: T1, rat FAAH (Rattus norvegicus, UniProt P97612); assay: Assay Method 2: FAAH assay, hydrolysis of 3H-anandamide by homogenate of SK-N-MC cells transfected with rat FAAH; type: biochemical; settings: T84 or transfected SK-N-MC cell homogenate, 3H-AEA tracer 80 nM, rt 1 h, pH 9
T1 construct: expressed in transfected cells
T1 sequence (P97612 1-579): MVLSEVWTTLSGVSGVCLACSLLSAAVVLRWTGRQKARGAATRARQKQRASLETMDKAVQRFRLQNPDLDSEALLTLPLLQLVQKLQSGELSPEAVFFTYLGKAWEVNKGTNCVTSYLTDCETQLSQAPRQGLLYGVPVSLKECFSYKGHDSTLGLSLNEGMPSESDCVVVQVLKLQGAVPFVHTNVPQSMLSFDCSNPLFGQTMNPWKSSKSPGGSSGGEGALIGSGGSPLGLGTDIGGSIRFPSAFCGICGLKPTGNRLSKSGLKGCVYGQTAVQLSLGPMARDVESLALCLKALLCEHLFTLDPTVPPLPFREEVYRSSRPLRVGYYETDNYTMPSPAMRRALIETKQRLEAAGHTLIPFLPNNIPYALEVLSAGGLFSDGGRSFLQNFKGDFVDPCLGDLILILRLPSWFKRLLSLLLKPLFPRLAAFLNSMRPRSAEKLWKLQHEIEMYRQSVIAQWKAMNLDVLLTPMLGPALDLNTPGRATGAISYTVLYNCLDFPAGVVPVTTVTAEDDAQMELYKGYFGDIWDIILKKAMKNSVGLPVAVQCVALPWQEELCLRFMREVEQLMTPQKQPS
Protocol: A. Transfection of Cells with Rat FAAH A 10-cm tissue culture dish with a confluent monolayer of SK-N-MC cells was split 2 days (d) prior to transfection. Using sterile technique, the media was removed and the cells were detached from the dish by the addition of trypsin. One fifth of the cells were then placed onto a new 10-cm dish. Cells were grown in a 37° C. incubator with 5% CO2 in Minimal Essential Media Eagle with 10% Fetal Bovine Serum. After 2 d, cells were approximately 80% confluent. These cells were removed from the dish with trypsin and pelleted in a clinical centrifuge. The pellet was re-suspended in 400 μL complete media and transferred to an electroporation cuvette with a 0.4 cm gap between the electrodes. Supercoiled rat FAAH cDNA (1 μg) was added to the cells and mixed. The voltage for the electroporation was set at 0.25 kV, and the capacitance was set at 960 μF. After electroporation, the cells were diluted into complete media (10 mL) and plated onto four 10-cm dishes. Because of the variability in the efficiency of electroporation, four different concentrations of cells were plated. The ratios used were 1:20, 1:10, and 1:5, with the remainder of the cells being added to the fourth dish. The cells were allowed to recover for 24 h before adding the selection media (complete media with 600 μg/mL G418). After 10 d, dishes were analyzed for surviving colonies of cells. Dishes with well-isolated colonies were used. Cells from individual colonies were isolated and tested. […] B. FAAH Assay […] The reaction mixture was incubated at rt for 1 h. During the incubation, 96-well Multiscreen filter plates (catalog number MAFCNOB50; Millipore, Bedford, Mass., USA) were loaded with 25 μL of activated charcoal (Multiscreen column loader, catalog number MACL09625, Millipore) and washed once with 100 μL of MeOH. Also during the incubation, 96-well DYNEX MicroLite plates (catalog number NL510410) were loaded with 100 μL of MicroScint40 (catalog number 6013641, Packard Bioscience, Meriden, Conn., USA). After the 1 h incubation, 60 μL of the reaction mixture were transferred to the charcoal plates, which were then assembled on top of the DYNEX plates using Centrifuge Alignment Frames (catalog number MACF09604, Millipore). The unbound labeled ethanolamine was centrifuged through to the bottom plate (5 min at 2000 rpm), which was preloaded with the scintillant, as described above. The plates were sealed and left at rt for 1 h before counting on a Hewlett Packard TopCount.

human FAAH = biological target: T2, human FAAH (Homo sapiens, UniProt O00519); assay: Assay Method 1: FAAH assay, hydrolysis of 3H-anandamide by homogenate of SK-N-MC cells transfected with human FAAH; type: biochemical; settings: human FAAH; T84 or transfected SK-N-MC cell homogenate; 3H-AEA tracer 80 nM; rt 1 h; pH 9; read-out: Assay 1 IC50
T2 construct: expressed in transfected cells
T2 sequence (O00519 1-579): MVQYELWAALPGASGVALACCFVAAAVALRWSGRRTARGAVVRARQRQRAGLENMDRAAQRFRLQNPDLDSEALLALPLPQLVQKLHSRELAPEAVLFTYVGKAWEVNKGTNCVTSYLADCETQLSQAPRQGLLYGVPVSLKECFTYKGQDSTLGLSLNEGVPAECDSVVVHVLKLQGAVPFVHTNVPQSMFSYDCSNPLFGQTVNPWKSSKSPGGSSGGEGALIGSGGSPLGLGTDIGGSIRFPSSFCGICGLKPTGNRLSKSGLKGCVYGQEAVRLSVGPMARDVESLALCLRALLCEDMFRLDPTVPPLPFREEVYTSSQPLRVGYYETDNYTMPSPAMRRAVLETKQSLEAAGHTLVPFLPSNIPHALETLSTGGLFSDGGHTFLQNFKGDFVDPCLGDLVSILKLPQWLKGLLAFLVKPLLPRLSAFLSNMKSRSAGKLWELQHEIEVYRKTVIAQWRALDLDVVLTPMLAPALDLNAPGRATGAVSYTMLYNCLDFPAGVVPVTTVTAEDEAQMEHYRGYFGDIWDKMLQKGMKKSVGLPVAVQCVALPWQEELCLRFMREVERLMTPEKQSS
Protocol: A. Transfection of Cells with Human FAAH
A 10-cm tissue culture dish with a confluent monolayer of SK-N-MC cells was split 2 days (d) prior to transfection. Using sterile technique, the media was removed and the cells were detached from the dish by the addition of trypsin. One fifth of the cells were then placed onto a new 10-cm dish. Cells were grown in a 37° C. incubator with 5% CO2 in Minimal Essential Media Eagle with 10% Fetal Bovine Serum. After 2 d, cells were approximately 80% confluent. These cells were removed from the dish with trypsin and pelleted in a clinical centrifuge. The pellet was re-suspended in 400 μL complete media and transferred to an electroporation cuvette with a 0.4 cm gap between the electrodes. Supercoiled human FAAH cDNA (1 μg) was added to the cells and mixed. The voltage for the electroporation was set at 0.25 kV, and the capacitance was set at 960 μF. After electroporation, the cells were diluted into complete media (10 mL) and plated onto four 10-cm dishes. Because of the variability in the efficiency of electroporation, four different concentrations of cells were plated. The ratios used were 1:20, 1:10, and 1:5, with the remainder of the cells being added to the fourth dish. The cells were allowed to recover for 24 h before adding the selection media (complete media with 600 μg/mL G418). After 10 d, dishes were analyzed for surviving colonies of cells. Dishes with well-isolated colonies were used. Cells from individual colonies were isolated and tested.
The assay mixture consisted of […] of the cell homogenate, 10 μL of the test compound, and 40 μL of anandamide [1-^3H-ethanolamine] (3H-AEA, Perkin-Elmer, 10.3 Ci/mmol), which was added last, for a final tracer concentration of 80 nM. The reaction mixture was incubated at rt for 1 h. During the incubation, 96-well Multiscreen filter plates (catalog number MAFCNOB50; Millipore, Bedford, Mass., USA) were loaded with 25 μL of activated charcoal (Multiscreen column loader, catalog number MACL09625, Millipore) and washed once with 100 μL of MeOH. Also during the incubation, 96-well DYNEX MicroLite plates (catalog number NL510410) were loaded with 100 μL of MicroScint40 (catalog number 6013641, Packard Bioscience, Meriden, Conn., USA). After the 1 h incubation, 60 μL of the reaction mixture were transferred to the charcoal plates, which were then assembled on top of the DYNEX plates using Centrifuge Alignment Frames (catalog number MACF09604, Millipore). The unbound labeled ethanolamine was centrifuged through to the bottom plate (5 min at 2000 rpm), which was preloaded with the scintillant, as described above. The plates were sealed and left at rt for 1 h before counting on a Hewlett Packard TopCount.

Row | IC50 (rat FAAH) [nM] | IC50 (human FAAH) [nM] | Compound
1 | 2000 | 180 | O=C(CCCC1CCN(Cc2ccc(N3CCOCC3)nc2)CC1)c1ncco1 [Example 107, 4-[1-(6-Morpholin-4-yl-pyridin-3-ylmethyl)-piperidin-4-yl]-1-oxazol-2-yl-butan-1-one]
2 | 95 | 905 | O=C(CCCC1CCN(S(=O)(=O)c2ccc(F)cc2)CC1)c1ncco1 [Example 55, 4-[1-(4-Fluoro-benzenesulfonyl)-piperidin-4-yl]-1-oxazol-2-yl-butan-1-one]
3 | 3000 | 325 | CN(C)c1ccc(CN2CCC(CCCC(=O)c3ncco3)CC2)cc1 [Example 88, 4-[1-(4-Dimethylamino-benzyl)-piperidin-4-yl]-1-oxazol-2-yl-butan-1-one]
4 | 21 | 2 | CC(C)(C)OC(=O)N1CCC(CCCC(=O)c2ncc(-c3ccco3)o2)CC1 [Example 120, 4-[4-(5-Furan-2-yl-oxazol-2-yl)-4-oxo-butyl]-Piperidine-1-carboxylic acid tert-butyl ester]
5 | 70 | 50 | O=C(CCCC1CCN(Cc2ccc(Cl)c(Cl)c2)CC1)c1ncco1 [Example 12, 4-[1-(3,4-Dichloro-benzyl)-piperidin-4-yl]-1-oxazol-2-yl-butan-1-one]
6 | 900 | 400 | CC(C)CC(=O)N1CCC(CCCC(=O)c2ncco2)CC1 [Example 26, 3-Methyl-1-[4-(4-oxazol-2-yl-4-oxo-butyl)-piperidin-1-yl]-butan-1-one]
7 | 318 | 28 | O=C(CCCC1CCN(Cc2cc(F)ccc2F)CC1)c1ncco1 [Example 113, 4-[1-(2,5-Difluoro-benzyl)-piperidin-4-yl]-1-oxazol-2-yl-butan-1-one]
8 | 180 | 50 | O=C(CCCC1CCN(Cc2ccc(F)c(Cl)c2)CC1)c1ncco1 [Example 13, 4-[1-(3-Chloro-4-fluoro-benzyl)-piperidin-4-yl]-1-oxazol-2-yl-butan-1-one]
9 | 3000 | 530 | O=C(CCCC1CCN(Cc2ccc(N3CCCC3)cc2)CC1)c1ncco1 [Example 102, 1-oxazol-2-yl-4-[1-(4-pyrrolidin-1-yl-benzyl)-piperidin-4-yl]-butan-1-one]
10 | 3 | 12 | O=C(CCCC1CCN(C(=O)CCc2ccc(Cl)cc2)CC1)c1ncco1 [Example 46, 4-{1-[3-(4-Chloro-phenyl)-propionyl]-piperidin-4-yl}-1-oxazol-2-yl-butan-1-one]
11 | 550 | 359 | O=C(CCCC1CCN(Cc2ccncc2)CC1)c1ncco1 [Example 6, 1-Oxazol-2-yl-4-(1-pyridin-4-ylmethyl-piperidin-4-yl)-butan-1-one]
12 | 900 | 315 | O=C(CCCC1CCN(Cc2ccccc2)CC1)c1ncco1 [Example 3, 4-(1-Benzyl-piperidin-4-yl)-1-oxazol-2-yl-butan-1-one]
13 | 650 | 400 | O=C(CCCC1CCN(Cc2ccc(Br)nc2)CC1)c1ncco1 [Example 76, 4-[1-(6-Bromo-pyridin-3-ylmethyl)-piperidin-4-yl]-1-oxazol-2-yl-butan-1-one]
14 | 113 | 71 | O=C(CCCC1CCN(Cc2ccc(-c3ccccc3)c(F)c2)CC1)c1ncco1 [Example 138, 4-[1-(2-Fluoro-biphenyl-4-ylmethyl)-piperidin-4-yl]-1-oxazol-2-yl-butan-1-one]
15 | 250 | 240 | O=C(CCCC1CCN(C(=O)COCc2ccccc2)CC1)c1ncco1 [Example 34, 4-[1-(2-Benzyloxy-acetyl)-piperidin-4-yl]-1-oxazol-2-yl-butan-1-one]
16 | 550 | 50 | CC(C)(C)c1ccc(CN2CCC(CCCC(=O)c3ncco3)CC2)cn1 [Example 139, 4-[1-(6-tert-Butyl-pyridin-3-ylmethyl)-piperidin-4-yl]-1-oxazol-2-yl-butan-1-one]
17 | 84 | 7 | CC(C)(C)c1ccc(CN2CCC(CCCC(=O)c3ncco3)CC2)cc1 [Example 83, 4-[1-(4-tert-Butyl-benzyl)-piperidin-4-yl]-1-oxazol-2-yl-butan-1-one]
18 | 720 | 60 | CCCCS(=O)(=O)N1CCC(CCCC(=O)c2ncco2)CC1 [Example 58, 4-[1-(Butane-1-sulfonyl)-piperidin-4-yl]-1-oxazol-2-yl-butan-1-one]

Row | Compound | IC50 (rat FAAH) [nM] | IC50 (human FAAH) [nM]
19 | O=C(CCCC1CCN(S(=O)(=O)CCc2ccccc2)CC1)c1ncco1 [Example 54, 1-Oxazol-2-yl-4-[1-(2-phenyl-ethanesulfonyl)-piperidin-4-yl]-butan-1-one] | 125 | 6
20 | CC(C)C(=O)N1CCC(CCCC(=O)c2ncco2)CC1 [Example 30, 4-(1-Isobutyryl-piperidin-4-yl)-1-oxazol-2-yl-butan-1-one] | 2250 | 250
